# Assay results published in a melting point compilation (Tetko et al.; mined from patent text by program, amines drawn as free bases though some values may be those of a salt).
row,SMILES,melting point [°C]
1,CS(=O)(=O)c1ccc(-c2cnn(CC(F)(F)F)c(=O)c2Nc2ccc(F)cc2)cc1,158 to 160
2,CCOCCn1c(COc2cccc(CO)c2)nc2ccccc21,105 to 107
3,COc1ccc(C2CCc3cc(CC(=O)O)cc(Cl)c3N2)cc1 (stereo not drawn),140 to 141
4,COc1ccc2c(c1)CCC1=C2CCC(O)C1 (stereo not drawn),90 to 92
5,N=c1[nH]c2ccccc2c2nc(-c3ccco3)nn12,282 to 285
6,CC(=O)Nc1ccc(I)cc1F,152 to 154
7,CCCCCCCCCCCCCOc1ccc(CNc2ccc(C(=O)OCC)cc2)cc1,95 to 105
8,COC(=O)[C@H](CCCCNC(=O)OCc1ccccc1)n1c2ccccc2c2ccccc21,97 to 99
9,CC(C)(C)OC(=O)CC(NC(=O)CCNC(=O)Cc1ccc(C#N)cc1)C(=O)NC(Cc1ccccc1)C(=O)OC(C)(C)C (stereo not drawn),93 to 94
10,O=C(Cc1ccc(OCc2ccccc2)cc1)P(=O)(O)O,112 to 113
11,CC(=S)NC[C@H]1CN(c2ccc(N3CCC(n4ccnn4)CC3)c(F)c2)C(=O)O1,171 to 172
12,CC1(C)CCC(C)(C)c2cc(-c3c[nH]c(C=O)c3)ccc21,211 to 212
13,Cc1cccc2nc(-c3ccccc3)sc12,53 to 54
14,CN(C)C(=O)Cc1ccc(CNC(=O)[C@@H](CCCNC(N)=N[N+](=O)[O-])NC(=O)C(c2ccccc2)c2ccccc2)cc1,198 to 200
15,O=C(NC/C=C/c1ccccc1)c1ccc(Cl)c(Cl)c1,105
16,COC(=O)c1c(S(C)(=O)=O)ccc(C(=O)O)c1C,113 to 118
17,O=C1CC(c2cccc(Cl)c2)c2cc(C(c3ccc(Cl)cc3)n3ccnc3)cc3c2N1CCC3 (stereo not drawn),93.6
18,O=CNc1nc(CSc2ccncc2)cs1,182 to 184
19,COC(=O)C1CCC2C3CC(O)C4(O)CC(O)CCC4(C)C3CCC12C (stereo not drawn),266 to 268
20,O=C(OCN1C(=O)CN(CCN2CC(=O)N(COC(=O)c3cccs3)C(=O)C2)CC1=O)c1cccs1,158 to 160
21,CCCCOc1ccc2cc(Nc3ccc(O)cc3)ccc2c1,138 to 139
22,Cc1cc(C)c(Nc2nc(C)ncc2S(=O)(=O)c2ccc(NCc3ccccc3)cc2)c(C)c1,200 to 202
23,O=C(O)[C@@H]1CSCN1C(=O)OCc1ccccc1,58 to 63
24,FC(F)(F)c1ccc(Oc2ccc3nonc3c2)c(Cl)c1,65 to 66
25,COc1c(Cl)ccc(-c2cc(N)c(OC(F)F)c(Cl)n2)c1F,152 to 154
26,CC12CCCc3cc(N(CC4CC4)c4ccc(C(=O)O)cc4)cc(c31)CCC2,234 to 235

row,SMILES,melting point [°C]
1,O=C(O)Cc1c(-c2ccccc2)[nH]c2nccnc12,276 to 277
2,COC(=O)C#Cc1cccc(C(=O)OC)c1,96 to 97
3,Cc1ccccc1Nc1nc(N)nc2c(C)cccc12,118 to 120
4,O=[N+]([O-])c1ccc2c(c1)N(C1CCN(CCc3ccc(F)cc3)CC1)CC2,104 to 106
5,CCc1nc2c(N)nc3ccccc3c2n1CCCC1(C)OCCO1,195 to 196
6,COC(=O)c1cnc(OC)c(N)c1,108 to 109
7,O=C(O)CCCCCCCCCCSc1nc(-c2ccccc2)c(-c2ccccc2)[nH]1,193 to 195
8,CC(C)(C)c1nc2cc(N3CCSCC3)c([N+](=O)[O-])cc2s1,117 to 120
9,COc1ccc(CCNc2nccc(-c3cccc(NC(=O)CCN(C)C)c3)n2)cc1OC,107 to 108
10,CCC(=O)NCc1ccc(CN2CCN(c3ncccn3)CC2)cc1,103 to 105
11,CCOC(=O)c1nc2c(=O)[nH]c3cc(C(F)(F)F)ccc3n2c1C,> 250
12,CC(=O)Nc1ccc(C(=O)O)c(O)c1,221 to 223
13,CC(C)(C)c1ccc(C(=O)c2ccccc2O)c(C(C)(C)C)c1O,126 to 128
14,N#CC1(c2ccc(C(F)(F)F)cc2)C2CC3CC(C2)CC1C3 (stereo not drawn),122 to 124
15,O=C(Nc1cccc2[nH]ccc12)c1ccccc1OCCCCBr,135
16,CN(c1nc(-c2cc3ccccc3[nH]c2=O)cs1)S(=O)(=O)c1cn(C)cn1,> 300
17,C=CCc1ccc(OCCC(C)C)c2c(=O)cc(C(=O)OCC)oc12,104 to 106
18,CC(=O)Nc1cnc(C2OCCO2)cc1C,98 to 99
19,CC(=O)Nc1ccccc1NS(=O)(=O)c1cc(C(=O)O)cc(NCc2ccccc2)c1Oc1ccccc1,197 to 200
20,Cc1noc(NS(=O)(=O)c2ccccc2N)c1C,116 to 118
21,CC(=O)OC(C)c1nc2c(C(F)(F)F)cccc2c(O)c1C(=O)Nc1nccs1 (stereo not drawn),262
22,CC(C)(C)OC(=O)c1ccc(Cl)c([N+](=O)[O-])c1,66 to 67
23,CCOC(=O)C(=CNC1CC1)C(=O)c1c(F)c(OC(F)F)c(F)c(F)c1[N+](=O)[O-],105 to 106
24,CCC(C)n1c(=O)nc(SC)[nH]c1=O (stereo not drawn),134 to 136
25,COc1ccc2c(N)c3ccccc3nc2c1,169 to 170
26,CC(=O)Oc1c(C2(OC(C)=O)C(=O)c3ccccc3C2=O)ccc(Cl)c1Cl,129 to 136

row,SMILES,melting point [°C]
1,Cc1cccc(NC(=O)NC2N=C(C3CCCC3)c3ccccc3N(Cc3ncccc3C)C2=O)c1 (racemic),198 to 199
2,CC(C)Cn1cnc2c(N)nc3ccc(-c4ccccc4)cc3c21,203 to 204
3,Cc1ccc(C(=O)c2ccc(C(C)C(=O)O)cc2)s1 (stereo not drawn),93.7
4,O=C1N(Cc2ccccn2)c2c(F)cccc2C12COc1cc3c(cc12)OCCO3 (stereo not drawn),205 to 207
5,CN1CCC(Nc2nc3ccccc3n2Cc2ccccc2)CC1,94 to 102
6,CCOC(=O)C1C(=O)Cc2ccccc21 (stereo not drawn),58 to 61
7,Nc1cc(Cl)ccc1Oc1c(C(=O)O)n(Cc2ccccc2)c2ccccc12,218 to 219
8,COc1ccc(-c2[nH]nc3c2C(=O)c2c(NC(=O)Cc4ccc(NC(C)=O)cc4)cccc2-3)cc1,268
9,[N-]=[N+]=NC1(O)CC(n2cc(I)c(=O)[nH]c2=O)OC1CO (stereo not drawn),126 to 130
10,CCCC[C@H](CO)C(=O)NOCc1ccccc1,100 to 102
11,CC(C)(C)CC(C)(C)NCC(O)COc1ccccc1C(=O)Nc1cccc2[nH]ccc12 (stereo not drawn),140
12,O=C(COc1ccccc1)N[C@H]1C(=O)N[C@H]1CO (relative stereo),153 to 154
13,COC(=O)c1cc(C(=O)NNC(C)=O)c2cc(Cc3ccc(F)cc3)cnc2c1O,208 to 209
14,N#Cc1ccccc1-c1ccc(CNC(=S)NN)cc1,163 to 164
15,Cc1c(C)c2c(c(C)c1O)SC(CCC(N)=O)O2 (stereo not drawn),160 to 161
16,CCc1cc(C(C)=O)ccc1N=C1SCC2(CCCC2)N1C1CCCC1,114 to 115
17,COc1ccc(N2C(=O)C(O[Si](C(C)C)(C(C)C)C(C)C)C2C=Cc2ccco2)cc1 (stereo not drawn),104 to 106
18,COC(=O)C(=NO)c1nc2cccc(OC)c2oc1=O,176 to 178
19,Cc1ccccc1Sc1cccc(CC(=O)O)c1O,96 to 97
20,CCn1cc(C(=O)O)c(=O)c2cnc(N3CCN(c4ccccc4)CC3)nc21,247 to 248
21,CC(C)COC(=O)Nc1ccc(C2=CCS(=O)CC2)c(F)c1 (stereo not drawn),212 to 214
22,CCS(=O)(=O)Nc1cccc(COc2cc(F)cc(Nc3ccc(I)cc3F)c2C(N)=O)c1,170
23,CCOC(=O)c1nc[nH]c1C(=O)OCC,175 to 177
24,COc1ccc(Cn2nc(-c3ccc(OC)cc3)c(-c3ccncc3)cc2=O)cc1,143
25,CC(C)C(=O)C1(S(=O)(=O)c2ccc(O)cc2)CC1,111 to 112
26,Cc1cccc(SCc2c(CCN(C)C)[nH]c3ccccc23)c1,75 to 78

row,SMILES,melting point [°C]
1,Nc1ccc(C(c2ccc(F)cc2)n2ccnc2)cc1[N+](=O)[O-] (stereo not drawn),147
2,Cc1ccc2c(c1)C1=NN(C(=O)c3cccnc3)CC1CO2 (stereo not drawn),177 to 178
3,CCOC(=O)CCCOc1ccc(C2=NNC(=O)CC2)cc1Cl,109 to 110
4,CCc1cn2ccccc2c1S(=O)(=O)c1ccc(OCCCn2ccnc2)cc1,130 to 131
5,CC(C)(C)C1(c2ccc(C(=O)O)cc2)OCCO1,214 to 216
6,CCCc1ccnc(C(=O)c2[nH]c3cc(Cl)ccc3c2CC(=O)O)c1,189 to 191
7,N#Cc1cncc(-c2cccc(OCc3ccccc3)c2)c1Nc1ccc2[nH]ccc2c1,165 to 166
8,COC(=O)C1(CCCCCCCCCCCCC2(C(=O)NS(C)(=O)=O)CC2)CC1,53.5 to 54.5
9,COc1ccc(NC(=O)c2cc(OC)c(OC)c(OC)c2)cc1,160 to 161
10,CN1Cc2c(C(N)=NO)ncn2-c2cccc(Br)c2C1=O,265 to 266
11,CN(C)CCNc1ccc(C=O)c2sc3ccc(O)cc3c(=O)c12,219 to 220
12,Nc1ncc(CCN2CCN(c3ccccn3)CC2)s1,158 to 161
13,COc1ccc(C(=O)Nc2c(-c3cc(Cl)ccc3O)c3cc(C(F)(F)F)ccc3[nH]c2=O)cc1,285 to 287
14,O=S(=O)(c1ccccc1)c1ncc(C(F)(F)F)cc1F,82 to 83
15,CC(C)(C)OC(=O)COc1ccc(NC(=O)OCc2ccccc2)cc1,109 to 110
16,CNC1C=Cc2cc(O)ccc2CC1 (stereo not drawn),152
17,CCOC(=O)COc1cc2c(C)csc2c(Cl)c1Cl,115 to 117
18,CNC(=O)C(=O)CCCCCCSc1nc2ccccc2s1,83 to 84
19,COC(=O)Cc1c(C)nc(SC)nc1O,200
20,Cc1cc(C)nc(-n2cnc(S(=O)(=O)Nc3c(Cl)cccc3Cl)n2)n1,274 to 275
21,CC(C)Nc1nc(Cl)nc(Cl)c1[N+](=O)[O-],65
22,OC(CCCn1ccnc1)c1ccc(Cl)cc1Cl (stereo not drawn),91.5 to 94
23,COc1ccc([N+](=O)[O-])cc1C(C#N)O[Si](C)(C)C (stereo not drawn),108 to 111
24,CN1CCCC1=NC(=O)Nc1ccc(Cl)cc1,138 to 141
25,CCC(Oc1cccc(OC)c1)C(=O)NCc1ccccc1 (stereo not drawn),63 to 64
